In patent publication US20070107083A1, “Method for regulating plant growth” (priority 2004, published 2007):
Entries after “also recorded” stand apart in the source; their conditions may differ.

Key:
[1] = tested on: UGT73C6 mRNA; experiment: Semiquantitative RT-PCR of 73C6 mRNA after compound treatment; type: in vivo, Arabidopsis thaliana; conditions: seedlings in liquid MS, 5 ppm DON, 200 μM SA, 2 μM ACC or 50 μM JA
[2] = tested on: DOGT1 promoter (PDOGT1-GUS); type: in vivo, Arabidopsis thaliana; conditions: seedlings; DON 5 ppm for 4 h, ACC 2 μM for 1 h, SA 200 μM for 12 h, JA 50 μM for 1 h
[3] = tested on: DOGT1 (UGT73C5) mRNA; experiment: Semiquantitative RT-PCR of DOGT1 mRNA after compound treatment; type: in vivo, Arabidopsis thaliana; conditions: for DOGT1 mRNA expression (RT-PCR): seedlings in liquid MS, 5 ppm DON, 200 μM SA, 2 μM ACC or 50 μM JA
[4] = tested on: UGT73C4 mRNA; experiment: Semiquantitative RT-PCR of 73C4 mRNA after compound treatment; type: in vivo, Arabidopsis thaliana; conditions: seedlings in liquid MS; 5 ppm DON, 200 μM SA
[5] = tested on: A. thaliana wild-type Col-0; experiment: Phenotype of wild-type seedlings on brassinosteroid media; type: in vivo, Arabidopsis thaliana; conditions: 10 day old seedlings
Protocol: (§1) 10 day old seedlings were transferred to MS media resp. MS media containing 1.0 μM BL and incubated for another 10 days before phenotypic analysis. […] Right: Seedlings of lines expressing DOGT1 grown on MS media show a BR-deficient phenotype (short hypocotyls and smaller leaves with shorter petioles compared to wild-type).
(§2) Plant material and growth conditions. A. thaliana experiments were conducted with the wild-type ecotype Columbia-0 (Col-0). For propagation seeds were sterilized, plated on standard MS growth medium (Murashige et al., Plant Physiology 15 (1962), 473-497) supplemented with 1.0% sucrose and 1.0% phytagar (Life Technologies) and subjected to a 2 day dark treatment at 4° C. to synchronize germination. The seedlings were grown for 2 weeks in a controlled environment of 16 h/8 h light-dark cycle (140 μmol m^−2 sec^−1 white light) at 22° C. before they were transferred to soil and grown at 20° C. and 55% humidity under continuous white light.
(§3) The effect of externally applied epi-brassinolide (epi-BL) was determined by transferring 10 day old seedlings of wild-type and a high DOGT1-expression line (1319/2) to media containing different concentrations of the brassinosteroid. The plants were incubated for 10 days before the phenotype was analysed.

[6] = tested on: A. thaliana high DOGT1-expression line (1319/2); experiment: Phenotype of DOGT1-overexpressing seedlings on brassinosteroid media; type: in vivo, Arabidopsis thaliana; conditions: 10 day old seedlings
Protocol: as §1, §2, §3

[7] = tested on: Saccharomyces cerevisiae strain YZGA452; type: cell-based
[8] = tested on: Wild-type Saccharomyces cerevisiae; type: cell-based
[9] = tested on: dwarf mutants with defects in BR biosynthesis; conditions: application of brassinolide; cited from earlier work
[10] = media with different concentrations, 10 days
[11] = MS media containing 1.0 μM BL, another 10 days

| Structure (SMILES) | 73C6 mRNA expression (RT-PCR) [1] | PDOGT1-GUS expression [2] | DOGT1 mRNA expression (RT-PCR) [3] | 73C4 mRNA expression (RT-PCR) [4] | other results |
| --- | --- | --- | --- | --- | --- |
| CC/C=C\C[C@H]1C(=O)CC[C@@H]1CC(=O)O [JA, jasmonic acid] | responded weekly with elevated mRNA levels | No induction of expression | responded weekly with elevated mRNA levels |  | 73C6 mRNA expression (RT-PCR) ([1]; listed as Jasmonic acid): weak induction of expression; DOGT1 mRNA expression (RT-PCR) ([3]; listed as Jasmonic acid): weak induction of expression |
| O=C(O)c1ccccc1O [SA, salicylic acid] | rather weakly; also recorded: responded weekly with elevated mRNA levels | No induction of expression | rather weakly; also recorded: responded weekly with elevated mRNA levels | rather weakly |  |
| CC(C)[C@@H](C)[C@@H](O)[C@H](O)[C@@H](C)[C@H]1CC[C@H]2[C@@H]3COC(=O)[C@H]4C[C@H](O)[C@H](O)C[C@]4(C)[C@H]3CC[C@]12C [epi-BL, epi-brassinolide] |  |  |  |  | phenotype of Col-0 [5, 10]: typical growth response; phenotype of high DOGT1-expression line 1319/2 [6, 10]: restored to wild-type phenotype |
| CC1=C[C@H]2O[C@@H]3[C@H](O)C[C@](C)([C@@]2(CO)[C@H](O)C1=O)[C@]31CO1 [DON, deoxynivalenol] | stronger induction of expression | induce PDOGT1-GUS expression | DON inducible expression | DON inducible | growth of yeast transformed with the empty library plasmid ([7]; 180 ppm DON in media): completely inhibit growth; sensitivity of strain YZGA452 ([7]; strain deficient in four ABC transporters): hypersensitive; resistance of wild-type yeast [8]: highly resistant; time of peak of transcript amounts ([3]; incubation with 5 ppm DON, stated for DOGT1, 73C4 and 73C6 transcripts): 4 h |
| CC(C)[C@H](C)[C@@H](O)[C@H](O)[C@@H](C)[C@H]1CC[C@H]2[C@@H]3COC(=O)[C@H]4C[C@H](O)[C@H](O)C[C@]4(C)[C@H]3CC[C@]12C [BL, Brassinolide] |  |  |  |  | growth of dwarf mutants with defects in BR biosynthesis [9]: restores normal growth; phenotype of wild-type seedlings [5, 11]: typical growth response; phenotype of DOGT1-expressing seedlings [6, 11]: restores wild-type growth |
